Data on two molecules can be found in patent US20260060960A1, “GAMMA-SECRETASE INHIBITORS FOR USE IN THE TREATMENT OF INHERITED EPIDERMOLYSIS BULLOSA” (OSPEDALE PEDIATRICO BAMBINO GESU', priority 2022, published 2026).

Common to all, as to assay type: cell-based, human
Data set [1] has as its system TGF-β1 secreted by RDEB-FBs. The experiment in a line: TGF-β1 ELISA on conditioned media of RDEB fibroblasts. The following applies: 20 μM, 48 h; for acid-activated TGF-β1 in conditioned media: three RDEB-FB strains, mean±SD. As for the experimental part:
Human TGF-β1 Quantikine ELISA Kit (R&D Systems, Minneapolis, MN, USA) was used to measure the amount of TGF-β1 (pg/mL) in serum-free conditioned media of three RDEB-FB strains, treated or not with PF-03084014 and DAPT at 1 or 20 μM for 48 h. DMSO-treated cells were used as controls. TGF-β1 Quantikine ELISA Kit was performed as per manufacturer's instructions. Samples were assayed in duplicate for each experimental condition. In order to detect both the latent precursor and the active form without latency-associated peptide cell supernatants were subjected to acid activation prior to be analyzed. Absorbance values were recorded at 455 nm with an Infinite F50 microplate reader (Tecan, Männedorf, Switzerland) and analyzed by employing the GraphPad Prism 8.2 version (GraphPad Software Inc., San Diego, CA, USA).
On the technique in general: In an ELISA, binding on a coated surface is turned into a signal by an enzyme label.

Data set [2] deals with primary fibroblasts from RDEB patients (RDEB-FBs). The experiment in a line: Collagen lattice contraction (CLC) assay. The following applies: for cell contractility (collagen lattice contraction) / contractility (collagen lattice contraction): RDEB-FBs, 20 μM, 48 h; for contractility (collagen lattice contraction): presence of TGF-β1 2 ng/mL. As to the method:
RDEB-FBs (5×10^5 cells) were mixed in a collagen buffer and seeded into 12-well plates as previously described. After gelation, fibroblast-populated collagen lattices were detached from the wells and left floating. RDEB-FBs were treated with 20 μM of DAPT and PF-03804014 in DMEM containing 0.1% BSA, in the presence or absence of TGF-β1 at 2 ng/mL, as contraction booster. JAG1-silenced RDEB-FBs were embedded in collagen lattices 24 h after siRNA transfection. In both cases, images were acquired with ChemiDoc™ XRS+ System (Bio-Rad, Hercules, CA, USA) at the detachment of collagen lattices from the wells (time 0, TO) and after 48 h. Gel areas were measured by ImageJ software and photos at TO were used as references.

Data set [3] has the same test system. The experiment in a line: MTT proliferation assay on RDEB fibroblasts. The following applies: 20 μM. As to the method: Proliferation rate was assessed by 3-(4,5-dimethyl-2-thiazolyl)-2,5-diphenyl-2H-tetrazolium bromide (MTT) assay, following the manufacturer's protocol. In brief, three different strains of RDEB-FBs were seeded at the density of 4×10^3 cells into 96-well plates. The day after, RDEB-FBs growing in DMEM containing 10% FBS were treated with 20 μM DAPT or PF-03084014 for 24 h or 48 h. Cells treated with the vehicle DMSO were used as controls. At the selected time points, medium was replaced with MTT solution and plates were incubated in a dry incubator at 37° C. for 3 h. Thereafter, cells were lysed in DMSO to dissolve formazan crystals and absorbance values were recorded at 560 nm with an Infinite F50 microplate reader (Tecan, Mannedorf, Switzerland). Values recorded 24 h after cell seeding, before GSI stimulation (TO) were used as reference.
Background: Tetrazolium dyes change colour on reduction, which living cells bring about.

The test system is the same in data set [4]. Kind of data set: Oris cell migration assay. The following applies: 24 h, vs non-treated cells. As to the method: Migration rate was evaluated using an Oris™ Cell Migration Assay Kit (Platypus Technologies, Madison, WI, USA) following the manufacturer's instructions. Briefly, cells were seeded at high density (5×10^4 per well) onto 96-well plates containing medical-grade silicon stoppers that restrict cell seeding to an outer annular region of the well, and serum starved overnight. The day after, silicon stoppers were removed and cells were transfected. Analysis of cell migration into the detection zone was performed after Giemsa stain (Sigma-Aldrich). The detection zone was photographed with a Leica DMi8 microscope (Leica Microsystems, Wetzlar, Germany) at 0 h (premigration controls) and 24 h after stopper removal. ImageJ was used to calculate the percentage of cell-free area. The cell migration assay of RDEB-FBs and NH-FBs grown under basal conditions was performed following the same protocol.

Data set [5] concerns primary fibroblast strains from healthy controls (NH-FBs). The experiment in a line: MTT viability/proliferation assay on primary fibroblasts from healthy controls. From the text: 3-(4,5-dimethyl-2-thiazolyl)-2,5-diphenyl-2H-tetrazolium bromide (MTT) assay showing the impact of DAPT and PF-03084014 treatment on viability and proliferation rate of three primary fibroblast strains from healthy controls (NH-FBs). Absorbance values (Abs) were converted in percentage by using the following formula: AbsDAPT or PF-03084014×100/AbsREFERENCE WELLS. Data are presented as mean±standard deviation (SD) of at least eight technical replicates per condition. Cells treated with the vehicle DMSO (Panel A), and cells analyzed 24 h after seeding (T0) (Panel B) were considered as reference wells. NH-FBs were growth in DMEM medium containing 10% fetal bovine serum (FBS). […] Based on the results, it was chosen to use GSIs at 20 μM (black arrows) as it was the minimal drug concentration inducing a reduction of cell proliferation after 24 h of treatment. (Panel C) Immunoblotting analysis showing the protein levels of the cleaved and biologically active form of NOTCH1 receptor (N1-ICD, NOTCH1 intracellular domain) in nuclear extracts of primary fibroblasts from RDEB patients (RDEB-FBs, n=2) treated for 24 h with DAPT and PF-03084014 at different doses, ranging from 0.1 to 20 μM. Cells treated with the vehicle dimethyl sulfoxide (DMSO) were used as control. The reduced nuclear localization of N1-ICD indicates Notch pathway inhibition. […] Lamin B1 (LMNB1) and glyceraldehyde-3-phosphate dehydrogenase (GAPDH) served as loading controls for the nuclear and cytoplasmic protein fractions, respectively. **P-value <0.01, ***P<0.001.
GSIs halt the processing of Notch receptor, and, in turn, play a role as indirect inhibitors of Notch signaling cascade. Following their reconstitution at 10 mM in dimethyl sulfoxide (DMSO), GSI aliquots were stored at −20° C. until use, avoiding freeze-thaw cycles. GSI treatment was performed in DMEM containing 10% FBS, unless otherwise specified. According to previous reports, RDEB-FBs were serum-starved overnight in DMEM containing BSA prior to be treated with GSIs. Cells treated with the vehicle DMSO were used as controls. GSIs were used at different concentrations ranging from 1 to 20 μM depending on the assay. […]
Proliferation rate was assessed by 3-(4,5-dimethyl-2-thiazolyl)-2,5-diphenyl-2H-tetrazolium bromide (MTT) assay, following the manufacturer's protocol. […] Thereafter, cells were lysed in DMSO to dissolve formazan crystals and absorbance values were recorded at 560 nm with an Infinite F50 microplate reader (Tecan, Mannedorf, Switzerland). Values recorded 24 h after cell seeding, before GSI stimulation (TO) were used as reference. […]

For the molecule `C[C@H](NC(=O)Cc1cc(F)cc(F)c1)C(=O)N[C@H](C(=O)OC(C)(C)C)c1ccccc1` [DAPT, N—[N-(3,5-difluorophenacetyl)-L-alanyl]-S-phenylglycine t-butyl ester], in data set [1], the “acid-activated TGF-β1 in conditioned media” value was found to be 250.4 ± 97.3 pg/mL. In data set [2] (absence of TGF-β1), the “cell contractility (collagen lattice contraction)” value is listed as “didn't exhibit significant variations”. Besides, the “contractility (collagen lattice contraction)” value in data set [2] was “significant, although less conspicuous”. The “cell proliferation (MTT)” value in data set [3] (24 and 48 h) is “didn't display variations in cell proliferation”. In addition, the “ability to migrate into the cell-free area” value in data set [4] is “significant decrease of RDEB-FB ability to migrate”. Further, the “proliferation rate (MTT)” value in data set [5] (20 and 40 μM, 48 h, vs DMSO) is “slight but statistically significant reduction of proliferation rate”.

As to `CCC[C@H](N[C@H]1CCc2cc(F)cc(F)c2C1)C(=O)Nc1cn(C(C)(C)CNCC(C)(C)C)cn1` [PF-03084014, (S)-2-((S)-5,7-difluoro-1,2,3,4-tetrahydronaphthalen-3-ylamino)-N-(1-(2-methyl-1-(neopentylamino)propan-2-yl)-1H-imidazol-4-yl)pentanamide], the “reduction of TGF-β1 released in culture media” value in data set [1] (vs cells treated with DMSO and DAPT) was “up to 60%”. For the same molecule, the “acid-activated TGF-β1 in conditioned media” value in data set [1] worked out at 99.6 ± 40.8 pg/mL. Further, in data set [2] (RDEB-FB1, 20 μM, absence of TGF-β1), the “contractile properties (collagen lattice contraction) in strain RDEB-FB1” value is recorded as “striking inhibition of contractile properties”. Moreover, the “cell contractility (collagen lattice contraction)” value in data set [2] (absence of TGF-β1) was “modest but consistent in all RDEB-FB strains analyzed”. In addition, the “contractility (collagen lattice contraction)” value in data set [2] is listed as “marked reduction of contractility”. Also, the “proliferation rate (MTT)” value in data set [3] (48 h, vs untreated cells) was “statistically significant reduction of RDEB-FB proliferation rate”. The “ability to migrate into the cell-free area” value in data set [4] is recorded as “significant decrease of RDEB-FB ability to migrate”. The “cell viability (MTT) compared to cells before GSI treatment (T0)” value in data set [5] (40 μM) is “reduction of cell viability”. The “fibroblast proliferation / cytotoxicity (MTT)” value in data set [5] (5-20 μM) is “affected fibroblast proliferation in a time- and dose-dependent manner, in the absence of overt cytotoxicity”. Besides, the “effects on proliferation rate (MTT)” value in data set [5] (20 and 40 μM at 24 h, 5 and 10 μM at 48 h, vs DMSO) was “observed after 24 h of treatment, and became more evident after 48 h of treatment, even at low doses (5 and 10 μM)”.
